Laboratory results: patent US20090298878A1, “OXIME COMPOUNDS AND THE USE THEREOF” (priority 2006, published 2009)
Counter-ions that a name gives are not always drawn.

Target: T1, N-type calcium channel (NTCC) (Homo sapiens, UniProt Q00975)
T1 construct: host or cells: IMR32 cells differentiated with dibutyryl cAMP and bromodeoxyuridine
Experiment: FLIPR calcium mobilization assay for N-type calcium channel (differentiated IMR32 cells)
Type: cell-based
Conditions: about 1.0 μM or less; calcium mobilization and/or electrophysiological assay
Protocol: Cell maintenance and differentiation. Unless noted otherwise, cell culture reagents were purchased from Mediatech of Hemdon, Md. IMR32 cells (American Type Culture Collection, ATCC, Manassas, Va.) were routinely cultured in growth medium consisting of minimum essential medium containing 10% fetal bovine serum (FBS, Hyclone, Logan, Utah), 100 U/mL penicillin, 100 μg/mL streptomycin, 2 mM L-glutamine, 1 mM sodium pyruvate, and 1× MEM non-essential amino acids. 80-90% confluent flasks of cells were differentiated using the following differentiation medium: Growth medium plus 1 mM dibutyryl cyclic AMP (Sigma, St. Louis, Mo.), and 2.5 μM bromodeoxyuridine (Sigma). Cells were differentiated for 8 days by replacing differentiation medium every 2-3 days.
FLIPR Calcium Mobilization Assay for N-type Calcium Channel. One day prior to performing this assay, differentiated IMR32 cells were treated with 1× CellStripper, and seeded on poly-D-lysine-coated 96-well clear-bottom black plates (Becton Dickinson, Franklin Lakes, N.J.) at 200,000 cells/well. On the day of the assay, the cell plates were washed with IMR32 buffer (127 mM NaCl, 1 mM KCl, 2 mM MgCl2, 700 μM NaH2PO4, 5 mM CaCl2, 5 mM NaHCO3, 8 mM HEPES, 10 mM glucose, pH 7.4), then pre-stimulated with KCl and loaded as follows: 0.05 mL of IMR32 buffer, 0.05 mL of each compound tested diluted in IMR32 buffer containing 20 μM nitrendipine (Sigma), and 0.1 mL KCl dissolved in IMR32 buffer, plus Fluo-4 were added (3 μM final concentration, Molecular Probes, Eugene, Oreg.). Final test compound concentrations ranged from about 846 pM to about 17 μM, final nitrendipine concentration was 5 μM, and final KCl concentration was 90 mM. After 1 hour, the cells were washed twice with 0.05 mL of each compound tested in nitrendipine-containing IMR32 buffer (no KCl or Fluo-4), and then replaced with 0.1 mL of each compound tested in nitrendipine-containing IMR32 buffer. Plates were then transferred to a Fluorimetric imaging Plate Reader (FLIPR^96, Molecular Devices, Inc., Sunnyvale, Calif.) for assay. The FLIPR measured basal Fluo-4 fluorescence for 315 seconds (i.e., 5 minutes and 15 seconds), then added 0.1 mL KCl agonist dissolved in IMR32 buffer and measured fluorescence for another 45 seconds. Final test compound concentrations on the cells after FLIPR read ranged from about 846 pM to about 17 μM, final nitrendipine concentration was 5 μM, and final KCl concentration was 90 mM. Data were collected over the entire time course and analyzed using Excel, Graph Pad Prism (version 3.02, Graph Pad, San Diego, Calif.), or an in-house non-linear regression analysis software.

T1 sequence (Q00975 whole entry): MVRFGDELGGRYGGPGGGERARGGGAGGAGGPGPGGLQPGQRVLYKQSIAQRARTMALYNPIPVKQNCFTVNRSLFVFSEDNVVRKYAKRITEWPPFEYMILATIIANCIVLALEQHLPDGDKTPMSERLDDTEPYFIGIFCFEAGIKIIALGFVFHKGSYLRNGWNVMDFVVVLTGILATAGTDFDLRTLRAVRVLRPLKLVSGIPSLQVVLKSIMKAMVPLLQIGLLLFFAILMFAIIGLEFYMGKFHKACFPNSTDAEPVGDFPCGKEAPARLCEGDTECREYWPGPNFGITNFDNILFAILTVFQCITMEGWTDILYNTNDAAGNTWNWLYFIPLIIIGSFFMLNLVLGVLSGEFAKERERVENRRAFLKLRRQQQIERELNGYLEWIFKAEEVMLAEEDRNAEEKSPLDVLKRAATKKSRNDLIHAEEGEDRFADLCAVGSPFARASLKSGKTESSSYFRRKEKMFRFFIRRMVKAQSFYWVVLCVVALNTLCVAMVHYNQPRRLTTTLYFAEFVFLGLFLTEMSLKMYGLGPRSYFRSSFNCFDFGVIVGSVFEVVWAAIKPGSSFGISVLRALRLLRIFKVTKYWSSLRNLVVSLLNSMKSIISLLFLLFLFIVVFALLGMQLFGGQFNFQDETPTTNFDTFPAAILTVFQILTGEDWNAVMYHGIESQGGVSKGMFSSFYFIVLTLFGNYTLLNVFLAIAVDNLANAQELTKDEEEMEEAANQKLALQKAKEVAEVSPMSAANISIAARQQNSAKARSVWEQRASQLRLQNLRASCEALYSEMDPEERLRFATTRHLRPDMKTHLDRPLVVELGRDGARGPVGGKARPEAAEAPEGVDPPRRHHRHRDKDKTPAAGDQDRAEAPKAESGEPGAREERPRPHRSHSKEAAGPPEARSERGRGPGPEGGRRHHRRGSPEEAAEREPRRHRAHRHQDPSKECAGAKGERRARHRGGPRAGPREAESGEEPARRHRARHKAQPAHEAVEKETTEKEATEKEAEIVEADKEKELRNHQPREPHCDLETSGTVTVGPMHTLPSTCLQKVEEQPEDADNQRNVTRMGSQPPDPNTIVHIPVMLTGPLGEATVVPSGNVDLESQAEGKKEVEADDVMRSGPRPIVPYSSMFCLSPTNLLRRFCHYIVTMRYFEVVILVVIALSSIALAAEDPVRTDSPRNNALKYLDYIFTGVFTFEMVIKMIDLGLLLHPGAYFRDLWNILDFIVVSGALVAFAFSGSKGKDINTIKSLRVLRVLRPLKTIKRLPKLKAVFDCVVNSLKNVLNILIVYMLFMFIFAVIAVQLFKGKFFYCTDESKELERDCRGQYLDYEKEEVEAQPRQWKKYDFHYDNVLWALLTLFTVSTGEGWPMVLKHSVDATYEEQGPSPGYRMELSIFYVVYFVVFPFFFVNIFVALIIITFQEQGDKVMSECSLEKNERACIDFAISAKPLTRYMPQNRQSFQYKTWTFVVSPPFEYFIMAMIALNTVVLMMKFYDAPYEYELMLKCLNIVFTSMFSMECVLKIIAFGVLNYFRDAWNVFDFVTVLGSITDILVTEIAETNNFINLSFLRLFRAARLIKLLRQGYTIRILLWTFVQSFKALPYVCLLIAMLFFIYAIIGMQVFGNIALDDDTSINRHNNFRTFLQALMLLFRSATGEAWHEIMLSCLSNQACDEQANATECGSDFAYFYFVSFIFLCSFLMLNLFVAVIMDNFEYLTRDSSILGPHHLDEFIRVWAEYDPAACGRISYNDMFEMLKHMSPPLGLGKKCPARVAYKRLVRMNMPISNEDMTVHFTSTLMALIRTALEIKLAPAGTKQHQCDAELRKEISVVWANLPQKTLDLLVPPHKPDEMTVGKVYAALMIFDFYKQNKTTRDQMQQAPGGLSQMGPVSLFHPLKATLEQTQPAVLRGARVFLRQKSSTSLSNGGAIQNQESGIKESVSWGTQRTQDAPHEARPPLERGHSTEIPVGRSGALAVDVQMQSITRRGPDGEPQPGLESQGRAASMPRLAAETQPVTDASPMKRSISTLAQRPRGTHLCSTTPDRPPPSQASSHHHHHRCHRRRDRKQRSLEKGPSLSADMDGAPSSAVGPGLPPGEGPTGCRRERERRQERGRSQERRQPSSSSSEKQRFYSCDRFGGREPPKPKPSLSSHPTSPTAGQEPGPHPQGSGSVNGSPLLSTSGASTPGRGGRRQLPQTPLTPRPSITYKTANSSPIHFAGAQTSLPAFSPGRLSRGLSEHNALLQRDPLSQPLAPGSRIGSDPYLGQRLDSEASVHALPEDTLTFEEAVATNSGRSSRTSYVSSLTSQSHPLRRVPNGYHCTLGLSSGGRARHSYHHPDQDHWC

IC50, ≤ 1000 nM:
O=C(CCC(c1ccc(F)cc1)c1ccc(F)cc1)N1CCC(=NOCc2cccc(C(F)(F)F)c2)CC1 [Example 29, 1-[4,4-Bis-(4-fluorophenyl)butyryl]piperidin-4-one O-(3-trifluoromethylbenzyl)oxime]
O=C(CCC(c1ccc(F)cc1)c1ccc(F)cc1)N1CCC(=NOCc2ccccc2)CC1 [Example 31, 1-[4,4-Bis-(4-fluorophenyl)butyryl]piperidin-4-one O-benzyloxime]
O=C(CCN1CCC(c2ccccc2)CC1)N1CCC(=NOCc2cccc(C(F)(F)F)c2)CC1 [Example 47, 1-[3-(4-Phenylpiperidin-1-ylpropionyl]piperidin-4-one O-(3-trifluoromethylbenzyl)oxime hydrochloride]
O=C(CCN1CCC(Cc2ccccc2)CC1)N1CCC(=NOCc2cccc(C(F)(F)F)c2)CC1 [Example 48, 1-[3-(4-Benzylpiperidin-1-yl)propionyl]piperidin-4-one O-(3-trifluoromethylbenzyl)oxime hydrochloride]
O=S(=O)(c1ccccc1)N1CCC(=NOCc2cccc(C(F)(F)F)c2)CC1 [Example 51, 1-Benzenesulfonylpiperidin-4-one O-(3-trifluoromethylbenzyl)oxime]
N#Cc1ccc(S(=O)(=O)N2CCC(=NOCc3cccc(C(F)(F)F)c3)CC2)cc1 [Example 53, 4-[4-(3-Trifluoromethylbenzyloxyimino)piperidine-1-sulfonyl]benzonitrile]
O=S(=O)(c1cccc(C(F)(F)F)c1)N1CCC(=NOCc2cccc(C(F)(F)F)c2)CC1 [Example 56, 1-(3-Trifluoromethylbenzenesulfonyl)piperidin-4-one O-(3-trifluoromethylbenzyl)oxime]
O=S(=O)(c1ccc(OC(F)(F)F)cc1)N1CCC(=NOCc2cccc(C(F)(F)F)c2)CC1 [Example 58, 1-(4-Trifluoromethoxybenzenesulfonyl)piperidin-4-one O-(3-trifluoromethylbenzyl)oxime]
O=S(=O)(c1cccc(OC(F)(F)F)c1)N1CCC(=NOCc2cccc(C(F)(F)F)c2)CC1 [Example 59, 1-(3-Trifluoromethoxybenzenesulfonyl)piperidin-4-one O-(3-trifluoromethylbenzyl)oxime]
O=S(=O)(c1ccc(F)cc1)N1CCC(=NOCc2cccc(C(F)(F)F)c2)CC1 [Example 62, 1-(4-Fluorobenzenesulfonyl)piperidin-4-one O-(3-trifluoromethylbenzyl)oxime]
O=S(=O)(c1ccccc1F)N1CCC(=NOCc2cccc(C(F)(F)F)c2)CC1 [Example 63, 1-(2-Fluorobenzenesulfonyl)piperidin-4-one O-(3-trifluoromethylbenzyl)oxime]
O=S(=O)(c1ccc(Cl)nc1)N1CCC(=NOCc2cccc(C(F)(F)F)c2)CC1 [Example 64, 1-(6-Chloropyridine-3-sulfonyl)piperidin-4-one O-(3-trifluoromethylbenzyl)oxime]
CCCCc1ccc(S(=O)(=O)N2CCC(=NOCc3cccc(Cl)c3)CC2)cc1 [Example 65, 1-(4-Butylbenzenesulfonyl)piperidin-4-one O-(3-chlorobenzyl)oxime]
CCCCc1ccc(S(=O)(=O)N2CCC(=NOCc3ccccc3)CC2)cc1 [Example 67, 1-(4-Butylbenzenesulfonyl)piperidin-4-one O-benzyloxime]
CCCCc1ccc(S(=O)(=O)N2CCC(=NOCc3ccccn3)CC2)cc1 [Example 68, 1-(4-Butylbenzenesulfonyl)piperidin-4-one O-pyridin-2-ylmethyloxime]
CCCCc1ccc(S(=O)(=O)N2CCC(=NOCc3ccnc(Cl)c3)CC2)cc1 [Example 69, 1-(4-Butylbenzenesulfonyl)piperidin-4-one O-(2-chloropyridin-4-ylmethyl)oxime]
CCCCc1ccc(S(=O)(=O)N2CCC(=NOCc3cccnc3)CC2)cc1 [Example 70, 1-(4-Butylbenzenesulfonyl)piperidin-4-one O-pyridin-3-ylmethyloxime]
CCCCc1ccc(S(=O)(=O)N2CCC(=NOCc3ccncc3)CC2)cc1 [Example 71, 1-(4-Butylbenzenesulfonyl)piperidin-4-one O-pyridin-4-ylmethyloxime]
CCCCc1ccc(S(=O)(=O)N2CCC(=NOCc3ccc(Cl)cc3)CC2)cc1 [Example 72, 1-(4-Butylbenzenesulfonyl)piperidin-4-one O-(4-chlorobenzyl)oxime]
CCCCc1ccc(S(=O)(=O)N2CCC(=NOCc3cc(Cl)ccn3)CC2)cc1 [Example 73, 1-(4-Butylbenzenesulfonyl)piperidin-4-one O-(4-chloropyridin-2-ylmethyl)oxime]
CCCCc1ccc(S(=O)(=O)N2CCC(=NOC(C)c3cccc(C(F)(F)F)c3)CC2)cc1 (centres unmarked) [Example 74, 1-(4-Butylbenzenesulfonyl)piperidin-4-one O-[1-(3-trifluoromethylphenyl)ethyl]oxime]
CCCCc1ccc(S(=O)(=O)N2CCC(=NOCc3cccc(Cl)n3)CC2)cc1 [Example 75, 1-(4-Butylbenzenesulfonyl)piperidin-4-one O-(6-chloropyridin-2-ylmethyl)oxime]
CCCCc1ccc(S(=O)(=O)N2CCC(=NOCc3cccc(OC)n3)CC2)cc1 [Example 76, 1-(4-Butylbenzenesulfonyl)piperidin-4-one O-(6-methoxypyridin-2-ylmethyl)oxime]
CCCCc1ccc(S(=O)(=O)N2CCC(=NOCc3ccccc3C(F)(F)F)CC2)cc1 [Example 78, 1-(4-Butylbenzenesulfonyl)piperidin-4-one O-(2-trifluoromethylbenzyl)oxime]
CCCCc1ccc(S(=O)(=O)N2CCC(=NOCc3cccc(OC(F)(F)F)c3)CC2)cc1 [Example 79, 1-(4-Butylbenzenesulfonyl)piperidin-4-one O-(3-trifluoromethoxybenzyl)oxime]
CCCCc1ccc(S(=O)(=O)N2CCC(=NOCc3cccc(OC)c3)CC2)cc1 [Example 80, 1-(4-Butylbenzenesulfonyl)piperidin-4-one O-(3-methoxybenzyl)oxime]
CCCCc1ccc(S(=O)(=O)N2CCC(=NOCc3ccc(F)c(C(F)(F)F)c3)CC2)cc1 [Example 81, 1-(4-Butylbenzenesulfonyl)piperidin-4-one O-(4-fluoro-3-trifluoromethylbenzyl)oxime]
CCCCc1ccc(S(=O)(=O)N2CCC(=NOCC3CCCCC3)CC2)cc1 [Example 82, 1-(4-Butylbenzenesulfonyl)piperidin-4-one O-cyclohexylmethyloxime]
Nc1ccccc1S(=O)(=O)N1CCC(=NOCc2cccc(C(F)(F)F)c2)CC1 [Example 85, 1-(2-Aminobenzenesulfonyl)piperidin-4-one O-(3-trifluoromethylbenzyl)oxime]
CCOc1ccc(S(=O)(=O)N2CCC(=NOCc3cccc(C(F)(F)F)c3)CC2)cc1 [Example 91, 1-(4-Ethoxybenzenesulfonyl)piperidin-4-one O-(3-trifluoromethylbenzyl)oxime]
CC(C)Oc1ccc(S(=O)(=O)N2CCC(=NOCc3cccc(C(F)(F)F)c3)CC2)cc1 [Example 93, 1-(4-Isopropoxybenzenesulfonyl)piperidin-4-one O-(3-trifluoromethylbenzyl)oxime]
COCCOc1ccc(S(=O)(=O)N2CCC(=NOCc3cccc(C(F)(F)F)c3)CC2)cc1 [Example 94, 1-[4-(2-Methoxyethoxy)benzenesulfonyl]piperidin-4-one O-(3-trifluoromethylbenzyl)oxime]
O=S(=O)(c1ccc(OCC2CC2)cc1)N1CCC(=NOCc2cccc(C(F)(F)F)c2)CC1 [Example 95, 1-(4-Cyclopropylmethoxybenzenesulfonyl)piperidin-4-one O-(3-trifluoromethylbenzyl)oxime]
CCCNc1ccc(S(=O)(=O)N2CCC(=NOCc3cccc(C(F)(F)F)c3)CC2)cn1 [Example 99]
O=S(=O)(c1ccc(Oc2ccccc2)nc1)N1CCC(=NOCc2cccc(C(F)(F)F)c2)CC1 [Example 101, 1-(6-Phenoxypyridine-3-sulfonyl)piperidin-4-one O-(3-trifluoromethylbenzyl)oxime]
